Measured values published in ChEMBL document CHEMBL1159351, “New briaranes from the Taiwanese gorgonian Junceella juncea” (J Nat Prod, 2003).
≈ marks a conversion by molar mass, not a printed value. Calls of active or inactive are those of the source. No cut-off for these calls is given here.

Legend:
Type in all cases: functional, cell-based
HEPA 59T/VGH = assay: (§1) Cytotoxicity against human HEPA 59T/VGH cells by methylene blue dye assay
KB16 = assay: (§2) Cytotoxicity against human KB16 cells by methylene blue dye assay
[1] = as §1
[2] = as §2

| SMILES | Activity (HEPA 59T/VGH) | Activity (KB16) | IC50 [1] [µg/mL] | IC50 [2] [µg/mL] |
| --- | --- | --- | --- | --- |
| COCC1=C/[C@@H]2OC(=O)[C@H](C)[C@@]2(O)[C@]2(OC(C)=O)[C@H]3[C@@]4(CO4)[C@H](OC(C)=O)[C@H](OC(C)=O)[C@H](OC(C)=O)[C@]3(C)[C@]2(OC(C)=O)/C=C\1 | inactive | inactive |  |  |
| CC(=O)O[C@H]1[C@@H](OC(C)=O)[C@]2(CO2)[C@H]2[C@](C)([C@H]1OC(C)=O)[C@]1(OC(C)=O)/C=C\C(CO)=C/[C@@H]3OC(=O)[C@H](C)[C@@]3(O)[C@]21OC(C)=O [JUNCENOLIDE C] |  |  | 6.6 (≈ 10.4 µM) | 7.8 (≈ 12.3 µM) |
| C=C1/C=C/[C@H](OC(C)=O)[C@@]2(C)[C@@H](OC(C)=O)CC[C@]3(CO3)[C@@H]2[C@H](OC(C)=O)[C@]2(O)[C@@H](C)C(=O)O[C@H]2[C@H]1Cl | inactive | inactive |  |  |
| CC(=O)O[C@H]1C[C@]2(CO2)[C@H]2[C@](C)([C@H]1OC(C)=O)[C@]1(OC(C)=O)/C=C\C(CO)=C/[C@@H]3OC(=O)[C@H](C)[C@@]3(O)[C@]21OC(C)=O | inactive | inactive |  |  |
